Source: patent publication US5559232A, “Carboxamides” (Hoffmann-La Roche Inc., priority 1993, dated 1996)

Columns and labels:
[1] = molecular target: human thrombin (Homo sapiens, UniProt P00734); assay: inhibition of the amidolytic activity of thrombin (chromogenic substrate S-2238); assay type: biochemical; details: for Ki: human thrombin 0.5 nM, substrate S-2238, pH 7.8, room temperature; for q (ratio of the inhibition of trypsin to the inhibition of thrombin): specificity: Ki trypsin / Ki thrombin
Procedure: A differential inhibition of thrombin and other serine proteases by the above compounds is desirable in order to obtain compounds having as high a specificity as possible and at the same time to avoid possible side-effects.
Specific chromogenic peptide substrates can be used to determine the inhibition of the catalytic activity of the above proteases. The inhibition of the amidolytic activity of thrombin and trypsin by the above guanidines was determined as described hereinafter.
The measurements were carried out on microtitre plates at room temperature. For this, in each well of the plate 150 μl of buffer (50 mM Tris, 100 mM NaCl, 0.1% polyethylene glycol; pH 7.8) were mixed with 50 μl of the inhibitor dissolved in DMSO and diluted in the buffer, and 25 μl of human thrombin (0.5 nM final conc.) were added. After incubation for 10 minutes the reaction was started by the addition of chromogenic substrate S-2238 (H-D-Phe-Pip-Arg-paranitroaniline from Kabivitrum; 10 or 50 μm final conc.) and the hydrolysis of the substrate was followed spectrophotometrically on a kinetic microtiter plate reader for 5 minutes. After graphical presentation of the inhibition curves the Ki values were determined according to the method described in Blochem. J. 55, 1955, 170-171.

[2] = molecular target: trypsin; assay: inhibition of the amidolytic activity of trypsin (chromogenic substrate S-2251); assay type: biochemical; details: substrate S-2251, 200 and 750 μM, otherwise analogous to thrombin

Compound	Ki [1]	q (ratio of the inhibition of trypsin to the inhibition of thrombin) [1]	Ki [2]
CCOC(=O)CN(C(=O)[C@H](CC(=O)NCC1CN(C(=N)N)CCO1)NC(=O)OCc1ccccc1)C1CC1 (stereo partly drawn) [Example 5a, ethyl [[(S)-3-[4-(amino-imino-methyl)-morpholin-2-ylmethylcarbamoyl]-2-benzyloxycarbonylaminopropionyl]-cyclopropyl-amino]-acetate]	8.9 µM	26	231 µM
N=C(N)N1CCC[C@@H](CNC(=O)C[C@H](NC(=O)NCc2ccccc2)C(=O)N(CC(=O)O)C2CC2)C1 [Example 11, [[(S)-3-[(S)-1-(amino-imino-methyl)-piperidin-3-ylmethylcarbamoyl]2-(3-benzyl-ureido)-propionyl]-cyclopropyl-amino]-acetic acid]	0.043 µM	814	35 µM
CCCCN(CCC(=O)O)C(=O)[C@H](CC(=O)NC[C@@H]1CCCN(C(=N)N)C1)NC(=O)OCc1ccccc1 [Example 4c, 3-[[(S)-3-[(S)-1-(amino-imino-methyl)-piperidin-3-ylmethylcarbamoyl]-2-benzyloxycarbonylamino-propionyl]-butyl-amino]propionic acid]	0.3 µM	333	100 µM
CCCCS(=O)(=O)N1CCN(CC(=O)O)C(=O)C1CC(=O)NC[C@@H]1CCCN(C(=N)N)C1 (stereo partly drawn) [Example 17, [3-[(S)-1-(amino-imino-methyl)-piperidin-3-ylmethylcarbamoylmethyl]-4-butylsulphonyl-2-oxo-piperazin-1yl]acetic acid]	1.3 µM	74	96 µM
N=C(N)N1CCC[C@@H](CNC(=O)C[C@H]2C(=O)N(C3CCCC3)CC(=O)N2S(=O)(=O)c2ccc3ccccc3c2)C1 [Example 16, N-[(S)-1-(amino-imino-methyl)-piperidin-3-ylmethyl]-2[(S)-4-cyclopentyl-1-naphthalen-2-ylsulphonyl-3,6-dioxopiperazin-2-yl]-acetamide]	0.11 µM	127	14 µM
CCCCN(CC(=O)O)C(=O)[C@H](CC(=O)NCC1CN(C(=N)N)CCO1)NC(=O)OCc1ccccc1 (stereo partly drawn) [Example 6b, [[(S)-3-[4-(amino-imino-methyl)-morpholin-2-ylmethylcarbamoyl]-2-benzyloxycarbonylamino-propionyl]-butyl-amino]-acetic acid]	0.0035 µM	18571	65 µM
CCOC(=O)CN(C(=O)[C@H](CC(=O)NC[C@@H]1CCCN(C(=N)N)C1)NC(=O)OCc1ccccc1)C1CC1 [Example 1, ethyl [[(S)-3-[(S)-1-(amino-imino-methyl)-piperidin-3-ylmethylcarbamoyl]-2-benzyloxycarbonylamino-propionyl]-cyclopropyl-amino]-acetate]	1.2 µM	58	70 µM
N=C(N)N1CCC[C@@H](CNC(=O)C[C@H](NC(=O)OCc2ccccc2)C(=O)N(CC(=O)O)C2CC2)C1 [Example 3, [[(S)-3-[(S)-1-(amino-imino-methyl)-piperidin-3-ylmethylcarbamoyl]-2-benzyloxycarbonylamino-propionyl]-cyclopropylamino]-acetic acid]	0.012 µM	1583	19 µM
CCCCN(CCC(=O)OCC)C(=O)[C@H](CC(=O)NC[C@@H]1CCCN(C(=N)N)C1)NC(=O)NCc1ccco1 [Example 10, Ethyl 3-[[(S)-3-[(S)-1-(amino-imino-methyl)-piperidin-3-ylmethylcarbamoyl]-2-(3-furan-2-ylmethyl-ureido)-propionyl]-butylamino]-propionate]	0.25 µM	204	51 µM
CCCCN(CCC(=O)OCC)C(=O)[C@H](CC(=O)NCC1CN(C(=N)N)CCO1)NC(=O)OCc1ccccc1 (stereo partly drawn) [Example 5d, ethyl 3-[[(S)-3-[4-(amino-imino-methyl)-morpholin-2-ylmethylcarbamoyl]-2-benzyloxycarbonylaminopropionyl]-butyl-amino]-propionate]	0.13 µM	92	12 µM
CCCCN1CC(=O)N[C@@H](CC(=O)NC[C@@H]2CCCN(C(=N)N)C2)C1=O [Example 18, N-[(S)-1-(amino-imino-methyl)-piperidin-3-ylmethyl]-2-[(S)-2,6-dioxo-4-butyl-piperazin-2-yl]-acetamide]	2.2 µM	268	590 µM
CCOC(=O)CCN(C(=O)[C@H](CC(=O)NC[C@@H]1CCCN(C(=N)N)C1)NC(=O)OCc1ccccc1)C1CC1 [Example 2a, Ethyl 3-[[(S)-3-[(S)-1-(amino-imino-methyl)-piperidin-3-ylmethylcarbamoyl]-2-benzyloxycarbonylamino-propionyl]-cyclopropylamino]-propionate]	0.017 µM	1706	29 µM
N=C(N)N1CCC[C@@H](CNC(=O)C[C@H]2C(=O)N(C3CC3)CC(=O)N2S(=O)(=O)c2ccc3ccccc3c2)C1 [Example 15, N-[(S)-1-(amino-imino-methyl)-piperidin-3-ylmethyl]-2-[(S)-4-cyclopropyl-1-naphthalen-2-ylsulphonyl-3,6-dioxo-piperazin-2-yl]-acetamide]	0.0018 µM	7222	13 µM
N=C(N)N1CCC[C@@H](CNC(=O)C[C@H](NC(=O)OCc2ccccc2)C(=O)N(CCC(=O)O)C2CC2)C1 [Example 4a, 3-[[(S)-3-[(S)-1-(Amino-imino-methyl)-piperidin-3-ylmethylcarbamoyl]-2-benzyloxycarbonylamino-propionyl]-cyclopropylamino]-propionic acid]	0.079 µM	1051	83 µM

Now from value to compound:

Ki [1]	q (ratio of the inhibition of trypsin to the inhibition of thrombin) [1]	Ki [2]	Compound
0.081 µM	852	69 µM	N=C(N)N1CCC[C@@H](CNC(=O)C[C@H](NC(=O)Cc2ccccc2)C(=O)N(CC(=O)O)C2CC2)C1 [Example 14e, [[(S)-3-[(S)-1-(amino-imino-methyl)-piperidin-3-ylmethylcarbamoyl]-2-benzylcarbonylamino-propionyl]-cyclopropyl-amino]acetic acid]
0.019 µM	3368	64 µM	CCCCC(=O)N[C@@H](CC(=O)NC[C@@H]1CCCN(C(=N)N)C1)C(=O)N(CC(=O)O)C1CC1 [Example 14a, [[(S)-3-[(S)-1-(Amino-imino-methyl)-piperidin-3-ylmethylcarbamoyl]-2-pentanoylamino-propionyl]-cyclopropyl-amino]acetic acid]
0.057 µM	877	50 µM	N=C(N)N1CCC[C@@H](CNC(=O)C[C@H](NC(=O)c2cc(Cl)ccn2)C(=O)N(CC(=O)O)C2CC2)C1 [Example 14c, [[(S)-3-[(S)-1-(amino-imino-methyl)-piperidin-3-ylmethylcarbarnoyl]-2-(4-chloro-pyridin-2-ylcarbonylamino)-propionyl]cyclopropyl-amino]-acetic acid]
0.41 µM	183	75 µM	CCCCCC(=O)N[C@@H](CC(=O)NC[C@@H]1CCCN(C(=N)N)C1)C(=O)N(CC(=O)OCC)C1CC1 [Example 13b, ethyl [[(S)-3-[(S)-1-(amino-imino-methyl)-piperidin-3-ylmethylcarbamoyl]-2-hexanoylamino-propionyl]-cyclopropyl-amino]acetate]
0.0061 µM	2459	15 µM	CC(=O)N[C@@H](Cc1c[nH]c2ccccc12)C(=O)N[C@@H](CC(=O)NC[C@@H]1CCCN(C(=N)N)C1)C(=O)N(CCNC(=O)c1cnccn1)C1CC1 [Example 21c, (S)-2-[(S)-2-acetylamino-3-indol-3-yl-propionylamino]-N4-[(S)-1-(amino-imino-methyl)-piperidin-3-ylmethyl]-N1-cyclopropyl-N1-(2-pyrazin-2-ylcarbonylamino-ethyl)-succinamide]
0.0072 µM	1944	14 µM	COC(=O)CC[C@H](O)C(=O)N[C@@H](CC(=O)NC[C@@H]1CCCN(C(=N)N)C1)C(=O)N(CCNC(=O)c1cnccn1)C1CC1 [Example 21b, methyl (S)-4-[(S)-2-[(S)-1-(amino-imino-methyl)-piperidin-3-ylmethylcarbonyl]-1-[cyclopropyl-(2-pyrazin-2-ylcarbonylaminoethyl)-carbamoyl]-ethylcarbamoyl]-4-hydroxy-butrate]
0.036 µM	694	25 µM	CCCCCC(=O)N[C@@H](CC(=O)NC[C@@H]1CCCN(C(=N)N)C1)C(=O)N(CC(=O)O)C1CC1 [Example 14b, [[(S)-3-[(S)-1-(amino-imino-methyl)-piperidin-3-ylmethylcarbamoyl]-2-hexanoylamino-propionyl]-cyclopropyl-amino]-acetic acid]
